Test results: US10358469B2, “Methods and pharmaceutical compositions for the treatment of cancer” (INSERM (INSTITUT NATIONAL DE LA SANTÉ ET DE LA RECHERCHE …, priority 2014, dated 2019)

What was measured:
Type in all cases: cell-based
[1] = test system: SeAx cells; assay: Propidium iodide (PI) uptake, flow cytometry, SeAx cells; conditions: 4 μM
Protocol: (§1) (A) SeAx or HaCat cells cultured in the absence of 10% FBS were left untreated or treated with 4 μM or 10 μM, respectively, of the Antp-AAC-11-LZ (363-399) peptide for the indicated durations. Cells were then analyzed by flow cytometry for PI staining. The results represent the mean number of PI-positive cells±S.D. from at least three independent experiments. (B) A549 and HaCat cells were plated at a densities of 4.5×10^3 in 96 well plates (100 μL total volume per well) and allowed to attach overnight in a 37° C. incubator (5% CO2). […] Lactate dehydrogenase (LDH) activity released in the culture medium was then assessed and data expressed as a percentage of the maximal level (Max) of LDH activity determined after total cell lysis±S.D. from at least three independent experiments.
(A) SeAx cultured in the absence of 10% FBS were left untreated or treated with 4 μM of the indicated Antp-AAC-11-LZ peptides for various times. Cells were then analyzed by flow cytometry for PI staining. […] Lactate dehydrogenase (LDH) activity released in the culture medium was then assessed and data expressed as a percentage of the maximal level (Max) of LDH activity determined after total cell lysis±S.D.
Cell death was evaluated upon staining with propidium iodide and flow cytometry analysis. […]

[2] = test system: D3H2LN cells; assay: Proliferation of D3H2LN cells (not showed)
[3] = test system: D3H2LN cells; assay: Matrigel invasion assay, D3H2LN cells; conditions: 2 μM, toward 10% FBS, 24 h, FIG. 7B
Protocol: FIG. 7: Antp-AAC-11-LZ (363-399) peptide inhibits cell migration and invasion. (A) D3H2LN cells were added to the upper well of modified Boyden chamber (transwell) plates with a vehicle or with either 2 μM of the Antp-AAC-11-LZ (363-399) peptide or the Antp-only peptide and subjected to a transwell migration assay as described under Materials and methods. The cells were allowed to migrate toward 10% FBS for 12 […]h. Triplicate wells were used for each of three independent experiments. The results are expressed relative to the migration of the untreated cells (=100%). Column: Mean of three experiments. Bar: s.e. P-value was determined by Student's t-test (*P<0.01). (B) D3H2LN cells were seeded in a Matrigel-coated Boyden chamber with a vehicle or with either 2 μM of the Antp-AAC-11-LZ (363-399) peptide or the Antp-only peptide and subjected to a transwell migration assay as described under Materials and methods. The cells were allowed to migrate toward 10% FBS for 24 […]h. Triplicate wells were used for each of three independent experiments. The results are expressed relative to the migration of the untreated cells (=100%). Column: Mean of three experiments. Bar: s.e. P-value was determined by Student's t-test (*P<0.01) […]

[4] = test system: HaCat cells; assay: Lactate dehydrogenase (LDH) release, HaCat cells; conditions: 10 μM, FIG. 4B
Protocol: as §1, with “FIG. 4: Antp-AAC-11-LZ (363-399) peptide induced necrotic cell death under low serum conditions. (A)” for “(A)”
Cytoplasmic lactate dehydrogenase (LDH) release into the cell culture supernatant occurs upon damage of the plasma membrane, and it is therefore considered a typical hallmark of necrosis. […] LDH activity was measured using the CytoTox 96® assay (Promega) by the reduction of lactate to pyruvate in the presence of NAD^+. […] Visible wavelength absorbance data are collected using a standard 96-well plate reader. […]
Necrosis was further assessed based on lactate dehydrogenase (LDH) activity release in the culture medium. […]

## Ac-RQIKIWFKKQNRRMKWKKAKLNAEKLKDFKIRLQYFARGLQVYIRQLRLALQGKT-NH2 [Antp-AAC-11-LZ (363-399)]
[1]; 5 minutes, absence of 10% FBS
  PI positive cells: 90%
[1]; up to 60 minutes
  PI positive cells, course after 5 minutes: remained unchanged
[2]
  proliferation at the concentrations used for migration: neither the Antp-AAC-11-LZ (363-399) or TAT-AAC-11-LZ (363-399) peptides impaired proliferation
[3]
  cell invasion: prevented invasion
[4]
  LDH release in nonmalignant cells: little LDH release
